# Measured values: US8871208B2, “11-β-hydroxysteroid dehydrogenase type 1 (11β-HSD1) inhibitors and uses thereof” (AbbVie Inc., priority 2009, dated 2014)
# Marks after values point to notes of the source that are not given here.
# Key:
# [1] = test system: P1NP (N-terminal propeptide of type I procollagen); assay: Mouse model of glucocorticoid-induced osteoporosis: plasma P1NP; assay type: in vivo; details: mice; for % Inhibition of P1NP, (+) Inhibitor: diet with 873 mg Compound B/kg; for % Inhibition of P1NP, (−) Inhibitor: control diet
# Excerpt: (§1) Purpose: The purpose of this experiment was to determine if inhibiting 11β-HSD-1 in mice results in protection from prednisolone-induced bone loss over a 28-day period, while maintaining the same anti-inflammatory efficacy against lipopolysaccharide(LPS)-induced TNFα.
# (§2) Animals: Female Swiss Webster mice from Charles River Laboratories (CFW mice) were used in this study. Mice were 10 weeks old at the start of the study. Two identical prednisolone dose responses were run with a vehicle control (n=12), 5, 1.5, and 0.5 mg/kg dosed for 28 days (n=8 each), and 1.5 mg/kg dosed for 27 days (n=8, to determine if prednisolone needed to be on board to affect tumor necrosis factor-alpha(TNFα), procollagen type 1 N-terminal propeptide(P1NP), and Osteocalcin). […] The total number of animals used was 88.
# (§3) Experimental Design: All animals were placed on the control diet (Research Diets Rodent Diet with 60 kcal % Fat: D12492i) upon arrival. […] Also on this day, animals were weighed for baselines and ear-tagged for identification. On day 1 of the study, all animals were injected intraperitoneally (i.p.) with 10 mg/kg of calcein (Sigma #C0875) in 2% sodium bicarbonate (Sigma #S6014, dissolved in deionized water). […] On day 27, 4 animals from each vehicle control group were challenged with 5 mg/kg of 11-dehydrocorticosterone (11-DHC [Steraloids #Q3690-000]) p.o., and plasma was collected 30 minutes later for corticosterone analysis by mass spec. […] Thirty minutes later, all groups were challenged with 0.1 mg/kg of LPS (Sigma #L4130) to induce TNFα. […] Right leg bones, left leg bones, and the spinal columns of all mice were collected and stored as follows:
# N-terminal propeptide of type I procollagen (PINP) was measured using the Rat/Mouse PINP EIA kit from Immunodiagnostic Systems. The protocol was followed as outlined in the kit, except for that sample dilutions were made in a separate plate instead of directly in the ELISA plate. Samples were read using a Molecular Devices Spectra Max 190 plate reader and Soft Max Pro 5.2 software.
# Osteocalcin = assay: Mouse model of glucocorticoid-induced osteoporosis: plasma osteocalcin; assay type: in vivo; details: mice; for % Inhibition of Osteocalcin, (+) Inhibitor: diet with Compound B; for % Inhibition of Osteocalcin, (−) Inhibitor: control diet
# Excerpt: as §1, §2, §3
# Osteocalcin was measured using the Millipore Milliplex Mouse Osteocalcin Single-Plex Kit. The protocol was followed exactly as outlined in the kit. Samples were read on a BioRad Bio-Plex System, model # Luminex 100 and Bio-Plex Manager 4.1.1 software.
# [2] = test system: Trabecular bone at Femoral Metaphysis; assay: Mouse model of glucocorticoid-induced osteoporosis: femur histomorphometry; assay type: in vivo; details: mice; for % Inhibition of MAR, (+) Inhibitor / % Increase in BFR/BV, (+) Inhibitor / % Increase in dLS/BS, (+) Inhibitor: diet with Compound B; for % Increase in dLS/BS, (−) Inhibitor / % Inhibition of BFR/BV, (−) Inhibitor / % Inhibition of MAR, (−) Inhibitor: control diet
# Excerpt: as §1, §2, §3
# Left leg bones were removed, cleaned, and cut identically to the right leg bones. However, left legs were separated at the knee joint by carefully teasing apart with a scalpel.
# Femurs were fixed in 4% paraformaldehyde for 48 hours, and transferred to 30% sucrose for 24 hours before embedding in a CMC (carboxymethylcellulose) block. Blocks were frozen in liquid nitrogen-cooled hexanes (−60° C. or colder) for 3-5 minutes, and stored at −80° C. Femurs were then sectioned on a cryomicrotome.
# Bone was measured from 8-10 fields per femur, with each field being 400×500 microns in size. All dynamic measurement calculations were made from scoring the second and third fluorochrome labels, which were administered 11 days apart. OsteoMeasure software was used to obtain all values.
# Bone formation rate/bone volume (BFR/BV) refers to the volume of new bone formed per unit of time, and is measured as a percent per day. BFR is the most significant measure of bone formation.
# Mineral apposition rate (MAR) refers to the distance between two fluorochrome labels divided by the number of days between label administration, and is indicative of osteoblastic activity.
# Double labeled surface/bone surface (dLS/BS) refers to the percentage of trabecular bone surface which is double-labeled, and is another readout indicative of bone formation.
# TNFα = assay: Mouse model of glucocorticoid-induced osteoporosis: LPS-induced TNFα; assay type: in vivo; details: mice, LPS 0.1 mg/kg challenge; for % Inhibition of TNFα, (+) Inhibitor: diet with Compound B; for % Inhibition of TNFα, (−) Inhibitor: control diet
# Excerpt: as §1, §2, §3
# TNFα was measured using the Mouse […] Quantikine ELISA kit from R&D Systems. The protocol was followed as outlined in the kit. Samples were read using a Molecular Devices Spectra Max 250 plate reader and Soft Max Pro 4.8 software.
# plasma osteocalcin [3] = assay: Study A: prednisolone-induced osteocalcin reduction in rats; assay type: in vivo; details: prednisolone 10 mg/kg po, 4 hour time point
# Excerpt: Prednisolone (active GC) administration to rats induces a variety of acute physiological effects including an increase in liver tyrosine amino transferase, increase in serum free fatty acids, increase in liver glycogen levels, hyperglycemia, decrease in osteocalcin, among others. Osteocalcin is of particular interest since a decrease in this hormone leads to decreased bone formation, increasing the potential for osteoporosis. Administration of an 11β-HSD-1 inhibitor would be expected to reduce local reactivation of prednisolone from prednisone in the bone or relevant tissue, and thereby reduce loss of osteocalin levels. […] Prednisone is reactivated, however, to prednisolone in the liver, bone and other tissues where 11β-HSD-1 is expressed. By blocking this reactivation through the use of an 11β-HSD-1 inhibitor, the exposure of active glucocorticoid in bone would be minimized. […] To validate this hypothesis, effects of the 11β-HSD-1 inhibitor (compound A) on prednisolone-induced osteocalcin reduction was evaluated in rats using two separate protocols as indicated in the Table 8 below.
# In Study A, rats were pre-dosed with Compound A at 30 mg/kg 1 hour prior to administration with the active glucocorticoid, prednisolone, at 10 mg/kg, po. At 2 and 4 hours after dosing prednisolone, rats were sacrificed, and blood evaluated for levels of osteocalcin.
# [4] = test system: markers of bone resorption; details: bone samples, healthy human volunteers, orally dosed; cited from earlier work
# insulin sensitivity = details: humans; cited from earlier work
# [5] = test system: inflammation, tissue destruction, bone erosion; details: animal models of RA; cited from earlier work
# plasma osteocalcin [6] = assay: Study B: prednisone-induced osteocalcin reduction in rats; assay type: in vivo; details: vehicle pre-treatment, prednisone 10 mg/kg po, 4 hours later
# Excerpt: Prednisolone (active GC) administration to rats induces a variety of acute physiological effects including an increase in liver tyrosine amino transferase, increase in serum free fatty acids, increase in liver glycogen levels, hyperglycemia, decrease in osteocalcin, among others. Osteocalcin is of particular interest since a decrease in this hormone leads to decreased bone formation, increasing the potential for osteoporosis. Administration of an 11β-HSD-1 inhibitor would be expected to reduce local reactivation of prednisolone from prednisone in the bone or relevant tissue, and thereby reduce loss of osteocalin levels. […] Prednisone is reactivated, however, to prednisolone in the liver, bone and other tissues where 11β-HSD-1 is expressed. By blocking this reactivation through the use of an 11β-HSD-1 inhibitor, the exposure of active glucocorticoid in bone would be minimized. This example would pertain to normal older individuals as well where cortisol levels increase with age, and likely contribute to age-dependent osteoporosis. This would be an acute study design. To validate this hypothesis, effects of the 11β-HSD-1 inhibitor (compound A) on prednisolone-induced osteocalcin reduction was evaluated in rats using two separate protocols as indicated in the Table 8 below.
# [7] = prednisolone 0.5 mg/kg p.o. daily 28 days
# [8] = prednisolone 5 mg/kg, p < 0.05 vs. (−) inhibitor
# [9] = prednisolone 0.5 mg/kg, p < 0.05 vs. vehicle control
compound,measurement,setting,value
"CC(C)(Oc1ccc(F)cc1Cl)C(=O)NC1C2CC3CC1CC(S(C)(=O)=O)(C3)C2 (stereo not shown) [Compound B, 2-(2-chloro-4-fluorophenoxy)-2-methyl-N-[(E)-5-(methylsulfonyl)-2-adamantyl]propanamide]","% Inhibition of P1NP, (+) Inhibitor",[1]; [7],25%
same,"% Inhibition of P1NP, (+) Inhibitor",[1]; prednisolone […] p.o. daily 28 days,28%
same,"% Inhibition of Osteocalcin, (+) Inhibitor",Osteocalcin; prednisolone 0.5 mg/kg,18%
same,"% Inhibition of Osteocalcin, (+) Inhibitor",Osteocalcin; [8],28%*
same,"% Inhibition of MAR, (+) Inhibitor",[2]; prednisolone 0.5 mg/kg,9%
same,"% Increase in BFR/BV, (+) Inhibitor",[2]; [9],47%^#
same,"% Increase in dLS/BS, (+) Inhibitor",[2]; [9],22%^#
same,"% Inhibition of MAR, (+) Inhibitor",[2]; prednisolone 5 mg/kg,23%
same,"% Increase in BFR/BV, (+) Inhibitor",[2]; [8],30%*
same,"% Increase in dLS/BS, (+) Inhibitor","[2]; prednisolone 5 mg/kg, p < 0.05 vs. vehicle control",46%^#
same,"% Inhibition of TNFα, (+) Inhibitor",TNFα; prednisolone 0.5 mg/kg,80%
same,"% Inhibition of TNFα, (+) Inhibitor",TNFα; prednisolone 5 mg/kg,98%
same,"% Inhibition of TNFα, (+) Inhibitor",TNFα; prednisolone […],94%
"C[C@]12C=CC(=O)C=C1CC[C@@H]1[C@@H]2[C@@H](O)C[C@@]2(C)[C@H]1CC[C@]2(O)C(=O)CO [Prednisolone, prednisolone, reference compound]","% Inhibition of P1NP, (−) Inhibitor",[1]; [7],33%
same,"% Inhibition of P1NP, (−) Inhibitor",[1]; prednisolone 5 mg/kg p.o. daily 28 days,51%
same,"% Inhibition of Osteocalcin, (−) Inhibitor",Osteocalcin; prednisolone 0.5 mg/kg,10%
same,"% Inhibition of Osteocalcin, (−) Inhibitor",Osteocalcin; prednisolone 5 mg/kg,45%
same,plasma osteocalcin after prednisolone,plasma osteocalcin [3],significant reductions in plasma osteocalcin
same,"% Increase in dLS/BS, (−) Inhibitor",[2]; prednisolone 0.5 mg/kg,No Increase
same,"% Inhibition of BFR/BV, (−) Inhibitor",[2]; prednisolone 0.5 mg/kg,No Inhibition
same,"% Inhibition of MAR, (−) Inhibitor",[2]; prednisolone 0.5 mg/kg,33%
same,"% Increase in dLS/BS, (−) Inhibitor",[2]; prednisolone 5 mg/kg,No Increase
same,"% Inhibition of BFR/BV, (−) Inhibitor",[2]; prednisolone 5 mg/kg,27%
same,"% Inhibition of MAR, (−) Inhibitor",[2]; prednisolone 5 mg/kg,52%
same,"% Inhibition of TNFα, (−) Inhibitor",TNFα; prednisolone 0.5 mg/kg,80%
same,"% Inhibition of TNFα, (−) Inhibitor",TNFα; prednisolone 5 mg/kg,98%
same,"% Inhibition of TNFα, (−) Inhibitor",TNFα; prednisolone […],95%
CC1(C)[C@@H](OC(=O)CCC(=O)O)CC[C@]2(C)[C@H]3C(=O)C=C4[C@@H]5C[C@@](C)(C(=O)O)CC[C@]5(C)CC[C@@]4(C)[C@]3(C)CC[C@@H]12 [carbenoxolone],markers of bone resorption,[4],significant decrease in markers of bone resorption
same,insulin sensitivity,insulin sensitivity,improves insulin sensitivity
CC1(C)[C@@H](O)CC[C@]2(C)[C@H]3C(=O)C=C4[C@@H]5C[C@@](C)(C(=O)O)CC[C@]5(C)CC[C@@]4(C)[C@]3(C)CC[C@@H]12 [glycyrrhetinic acid],"effect on inflammation, tissue destruction and bone erosion",[5],reduced inflammation and tissue destruction as well as bone erosion
C[C@]12C=CC(=O)C=C1CC[C@@H]1[C@@H]2C(=O)C[C@@]2(C)[C@H]1CC[C@]2(O)C(=O)CO [prednisone],plasma osteocalcin after prednisone challenge,plasma osteocalcin [6],significant reduction in plasma osteocalcin
